Patent publication US8759512B2, “Methods of preparation of macrocyclic compounds” (University of Florida Research Foundation, Inc., priority 2008, dated 2014)

Key:
NIH3T3 cells = assay type: cell-based; conditions: NIH3T3, 48 h, MTT
Method: Cell culture medium was purchased from Invitrogen and fetal bovine serum (FBS) from Hyclone. Cells were propagated and maintained in DMEM medium (high glucose) supplemented with 10% FBS at 37° C. humidified air and 5% CO2.
Cells suspended in DMEM containing 10% FBS were plated in 96-well plates (MDA-MB-231: 12,000 cells; NMuMG: 5,000 cells; U2OS: 5,000 cells; HT29: 10,000 cells; IMR-32: 30,000 cells; NIH3T3: 5,000 cells) incubated (37° C., 5% CO2) and 24 h later treated with various concentrations of compound 21 or solvent control (1% EtOH). After another 48 h of incubation, cell viability was measured using MTT according to manufacturer's instructions (Promega).
MDA-MB-231 and NMuMG cells were also treated with paclitaxel (in DMSO), actinomycin D (in DMSO) and doxorubicin (in H2O) and corresponding solvent control (1%) in the same manner. GI50 and LC50 values were calculated as previously described (K. D. Paull, E. Hamel, L. Malspeis, In Cancer Chemotherapeutic Agents, W. E. Foye, Ed., American Chemical Society, Washington, D.C., 1995, pp. 10-11).
[formula] [T=absorbance in treated wells (48 h); T0=absorbance at time zero; C=absorbance in control wells (48 h)]

[1] = test system: HeLa nuclear extract HDACs (class I HDACs 1, 2, and 3); assay: HeLa nuclear extract HDAC inhibition; assay type: biochemical; conditions: HeLa cell nuclear protein extract
Excerpt: Largazole (21) inhibited HDAC activity from a HeLa cell nuclear protein extract rich in class I HDACs 1, 2, and 3 (BIOMOL); however, it is possible that the thioester is cleaved under assay conditions. To investigate that thiol 29 is a reactive species, we liberated 29 from the acetyl analog 28 of largazole (21) and measured enzymatic activity directly; thiol […] inhibited the HDACs in the nuclear extract of HeLa cells with a similar IC50 value (Table 3).

HCT-116 cells = assay: HCT-116 growth inhibition; assay type: cell-based
HDAC = assay: HCT-116 HDAC cellular assay (Fluor de Lys substrate); assay type: cell-based; conditions: HCT-116, 8 h, fluorogenic HDAC substrate

CCCCCCCC(=O)SCC/C=C/[C@@H]1CC(=O)NCc2nc(cs2)C2=N[C@@](C)(CS2)C(=O)N[C@@H](C(C)C)C(=O)O1 [Compound 21, Largazole]
toxicity (cytotoxicity) (NIH3T3 cells): no apparent toxicity

CC(=O)SCC/C=C/[C@@H]1CC(=O)NCc2nc(cs2)C2=N[C@@](C)(CS2)C(=O)N[C@@H](C(C)C)C(=O)O1 [Compound 28]
IC50 [1]: 52 ± 27 nM | GI50 (HCT-116 cells): 33 ± 2 nM | IC50 (HDAC): 50 ± 18 nM
